Test results as given in ChEMBL document CHEMBL4190285, “Borapetoside E, a Clerodane Diterpenoid Extracted from Tinospora crispa, Improves Hyperglycemia and Hyperlipidemia in High-Fat-Diet-Induced Type 2 Diabetes Mice” (J Nat Prod, 2017).
Activity calls are given as the source filed them. No cut-off for these calls is given here.

How the values were obtained:
[1] = test system: Mus musculus; experiment: Antihyperlipidemic activity in high fat diet-induced obese C57BL/6J mouse assessed as serum HDL-C levels at 20 mg/kg, ip administered twice daily for 2.5 days measured at 2 hrs post last dose (reference value: 1.82 +/- 0.58 mmol/L); format: functional
[2] = test system: Mus musculus; experiment: Antihyperlipidemic activity in high fat diet-induced obese C57BL/6J mouse assessed as serum triglyceride levels at 40 mg/kg, ip administered twice daily for 2.5 days measured at 2 hrs post last dose (reference value: 1.31 +/- 0.48 mmol/L); format: functional
[3] = test system: Mus musculus; experiment: Antihyperlipidemic activity in high fat diet-induced obese C57BL/6J mouse assessed as serum free fatty acid levels at 20 mg/kg, ip administered twice daily for 2.5 days measured at 2 hrs post last dose (reference value: 1.41 +/- 0.3 mmol/L); format: functional
[4] = test system: Mus musculus; experiment: Down regulation of FAS mRNA expression in HFD-induced obese C57BL/6J mouse liver at 20 to 40 mg/kg, ip administered twice daily for 2.5 days measured at 2 hrs post last dose by RT-PCR analysis; format: functional, organism-based
[5] = test system: Mus musculus; experiment: Down regulation of FAS mRNA expression in HFD-induced obese C57BL/6J mouse adipose tissue at 20 to 40 mg/kg, ip administered twice daily for 2.5 days measured at 2 hrs post last dose by RT-PCR analysis; format: functional, organism-based
[6] = test system: Mus musculus; experiment: Improvement in insulin resistance in high fat diet-induced obese C57BL/6J mouse assessed as increase in phosphorylated GSK3beta level in liver at 40 mg/kg, ip administered twice daily for 2.5 days measured at 2 hrs post last dose by Western blot analysis; format: functional, organism-based
[7] = test system: Mus musculus; experiment: Improvement in serum ALT level in HFFD-induced obese C57BL/6J mouse assessed as serum ALT level at 40 mg/kg, ip administered twice daily for 2.5 days followed by once daily dosing up to 16 days measured at 2 hrs post last dose (reference value: 20.49 +/- 4.5 IU/L); format: functional
[8] = test system: Mus musculus; experiment: Increase in carbon dioxide production in HFD-induced obese C57BL/6J mouse at 40 mg/kg, ip administered twice daily for 2.5 days measured up to 12.6 hrs under dark condition; format: functional, organism-based
[9] = test system: Mus musculus; experiment: Effect on respiratory exchange ratios in HFD-induced obese C57BL/6J mouse at 40 mg/kg, ip administered twice daily for 2.5 days measured up to 12.6 hrs under dark condition; format: functional, organism-based
[10] = test system: Mus musculus; experiment: Down regulation of LXRalpha mRNA expression in HFD-induced obese C57BL/6J mouse liver at 20 to 40 mg/kg, ip administered twice daily for 2.5 days measured at 2 hrs post last dose by RT-PCR analysis; format: functional, organism-based
[11] = test system: Mus musculus; experiment: Antiobesity activity in HFFD-induced obese C57BL/6J mouse assessed as reduction in size of adipocytes at 40 mg/kg, ip administered twice daily for 2.5 days followed by once daily dosing up to 16 days measured at 2 hrs post last dose by hematoxylin-eosin staining based histological analysis; format: functional, organism-based
[12] = test system: Mus musculus; experiment: Antihyperlipidemic activity in high fat diet-induced obese C57BL/6J mouse assessed as serum LDL-C levels at 20 mg/kg, ip administered twice daily for 2.5 days measured at 2 hrs post last dose (reference value: 2.54 +/- 0.87 mmol/L); format: functional
[13] = test system: Mus musculus; experiment: Antihyperlipidemic activity in high fat diet-induced obese C57BL/6J mouse assessed as serum total cholesterol levels at 20 mg/kg, ip administered twice daily for 2.5 days measured at 2 hrs post last dose (reference value: 4.56 +/- 1.01 mmol/L); format: functional
[14] = test system: Mus musculus; experiment: Antihyperglycemic activity in high fat diet-induced obese C57BL/6J mouse assessed as reduction in blood glucose level at 20 to 40 mg/kg, ip administered twice daily for 2.5 days measured at 3 days post last dose; format: functional, organism-based
[15] = test system: Mus musculus; experiment: Antihyperglycemic activity in high fat diet-induced obese C57BL/6J mouse assessed as reduction in blood glucose AUC at 40 mg/kg, ip pretreated twice daily for 2.5 days followed by glucose challenge at 2 hrs post last dose by OGTT; format: functional, organism-based
[16] = test system: Mus musculus; experiment: Antihyperlipidemic activity in high fat diet-induced obese C57BL/6J mouse assessed as serum HDL-C levels at 40 mg/kg, ip administered twice daily for 2.5 days measured at 2 hrs post last dose (reference value: 1.82 +/- 0.58 mmol/L); format: functional
[17] = test system: Mus musculus; experiment: Increase in oxygen consumption in HFFD-induced obese C57BL/6J mouse at 40 mg/kg, ip administered twice daily for 2.5 days measured up to 12.6 hrs under dark condition; format: functional, organism-based
[18] = test system: Mus musculus; experiment: Antihyperlipidemic activity in high fat diet-induced obese C57BL/6J mouse assessed as serum triglyceride levels at 20 mg/kg, ip administered twice daily for 2.5 days measured at 2 hrs post last dose (reference value: 1.31 +/- 0.48 mmol/L); format: functional
[19] = test system: Mus musculus; experiment: Antihyperlipidemic activity in high fat diet-induced obese C57BL/6J mouse assessed as serum total cholesterol levels at 40 mg/kg, ip administered twice daily for 2.5 days measured at 2 hrs post last dose (reference value: 4.56 +/- 1.01 mmol/L); format: functional
[20] = test system: Mus musculus; experiment: Effect on respiratory exchange ratios in HFD-induced obese C57BL/6J mouse at 40 mg/kg, ip administered twice daily for 2.5 days incubated for 12.6 hrs under dark condition followed by redosing on day 3 for 2 times; format: functional, organism-based
[21] = test system: Mus musculus; experiment: Down regulation of ABCG5 mRNA expression in HFD-induced obese C57BL/6J mouse liver at 20 to 40 mg/kg, ip administered twice daily for 2.5 days measured at 2 hrs post last dose by RT-PCR analysis; format: functional, organism-based
[22] = test system: Mus musculus; experiment: Improvement in insulin resistance in high fat diet-induced obese C57BL/6J mouse assessed as reduction in fasting serum glucose level at 40 mg/kg, ip pretreated twice daily for 2.5 days followed by insulin challenge at 2 hrs post last dose measured up to 2 hrs by ITT; format: functional, organism-based
[23] = test system: Mus musculus; experiment: Improvement in insulin resistance in high fat diet-induced obese C57BL/6J mouse assessed as reduction in fasting serum insulin level at 40 mg/kg, ip pretreated twice daily for 2.5 days followed by insulin challenge at 2 hrs post last dose measured up to 2 hrs by ELISA based ITT; format: functional, organism-based
[24] = test system: Mus musculus; experiment: Down regulation of HMGCS mRNA expression in HFD-induced obese C57BL/6J mouse adipose tissue at 20 to 40 mg/kg, ip administered twice daily for 2.5 days measured at 2 hrs post last dose by RT-PCR analysis; format: functional, organism-based
[25] = test system: Mus musculus; experiment: Down regulation of SREBP1 mRNA expression in HFD-induced obese C57BL/6J mouse liver at 20 to 40 mg/kg, ip administered twice daily for 2.5 days measured at 2 hrs post last dose by RT-PCR analysis; format: functional, organism-based
[26] = test system: Mus musculus; experiment: Improvement in insulin resistance in high fat diet-induced obese C57BL/6J mouse assessed as increase in phosphorylated GSK3beta expression in skeletal muscle at 40 mg/kg, ip administered twice daily for 2.5 days measured at 2 hrs post last dose by Western blot analysis; format: functional, organism-based
[27] = test system: Mus musculus; experiment: Down regulation of ACL1 mRNA expression in HFD-induced obese C57BL/6J mouse liver at 20 to 40 mg/kg, ip administered twice daily for 2.5 days measured at 2 hrs post last dose by RT-PCR analysis; format: functional, organism-based
[28] = test system: Mus musculus; experiment: Toxicity in HFFD-induced obese C57BL/6J mouse assessed as effect on food intake at 40 mg/kg, ip administered twice daily for 2.5 days followed by once daily dosing up to 16 days measured daily during compound dosing; format: organism-based; details: in vivo

COC(=O)C1=CCC[C@H]2[C@](C)(C[C@@H](O[C@@H]3O[C@H](CO)[C@@H](O)[C@H](O)[C@H]3O)c3ccoc3)[C@H]3C[C@H](OC3=O)[C@@]12C
Activity [1]: 1.2 mmol/L | Activity [2]: 0.5 mmol/L | Activity [3]: 1.39 mmol/L | Activity [4]: Active | Activity [5]: Active | Activity [6]: Active | Activity [7]: 15.75 IU/L | Activity [8]: Active | Activity [9]: inactive | Activity [10]: Active | Activity [11]: Active | Activity [12]: 2.21 mmol/L | Activity [13]: 3.8 mmol/L | Activity [14]: Active | Activity [15]: Active | Activity [16]: 1.31 mmol/L | Activity [17]: Active | Activity [18]: 1.09 mmol/L | Activity [19]: 2.24 mmol/L | Activity [20]: inactive | Activity [21]: Active | Activity [22]: Active | Activity [23]: Active | Activity [24]: Active | Activity [25]: Active | Activity [26]: Active | Activity [27]: Active | Activity [28]: Non-Toxic
